The text below walks through data of patent US8476197B2, “Aminopropenoates as fungicides” (priority 2009, dated 2013).

A word on the Log P: it is a log measure of how a compound divides between an organic and an aqueous phase. A lower Log P goes with a more hydrophilic compound.

Marks after values point to notes of the source that are not given here.

For the first series the following is noted: pH 2.3.
Protocol: Measurement of logP values was performed according EEC directive 79/831 Annex V.A8 by HPLC (High Performance Liquid Chromatography) on reversed phase columns with the following methods:
^[a] measurement of LC-MS was done at pH 2.7 with 0.1% formic acid in water and with acetonitrile (contains 0.1% formic acid) as eluent with a linear gradient from 10% acetonitrile to 95% acetonitrile. ^[b] Measurement was done at pH 7.5 with 0.005 molar aqueous KH2PO4 buffer and acetonitrile as eluent. ^[c] Measurement was done at pH 2.3 with 0.1% (w/w) phosphoric acid and acetonitrile as eluent.
For `CCOC(=O)C(C#N)=C(NC(C)C(C)C)c1cccnc1-c1ccc(Cl)cc1` (stereo not drawn) [Compound 974], the “Log P” value is 4.09. On the same count and under the same terms, the value for `CCOC(=O)C(C#N)=C(Nc1ccc(F)c(F)c1)c1cccnc1Cl` [Compound 1597] was 3. On the same count and under the same terms, the value for `C=CCNC(=O)C(C#N)=C(NC(C)C(C)C)c1cccnc1Cl` (stereo not drawn) [Compound 1458] was 3^[c]; 3^[b]. The same measure, in the same setting: with `CCONC(=O)C(C#N)=C(NC(C)C(C)C)c1cccnc1Cl` (stereo not drawn) [Compound 1454] the figure was 2.44^[c]; 2.44^[b]. In the case of `CCOC(=O)C(C#N)=C(NC(C)C(C)C)c1cccnc1OC` (stereo not drawn) [Compound 961], the log partition coefficient (Log P) is 3.52^[c]; 3.52^[b].

The same series, now with this note: pH 2.7.
As to `CCOC(=O)C(C#N)=C(NC(c1cncnc1C(F)(F)F)C(C)C)c1cccnc1Cl` (racemic) [Compound 1557], the lipophilicity (Log P) is 3.55^[a].

For `CCOC(=O)C(C#N)=C(NC(C)c1ccccn1)c1ccnc(C)c1F` (stereo not drawn) [Compound 1320], the “Log P” value is 2.5^[a]. The same measure, in the same setting: with `CONC(=O)C(C#N)=C(NC(C)c1ccccn1)c1cccnc1Cl` (stereo not drawn) [Compound 1583] the figure was 1.46^[a]; with `CCOC(=O)C(C#N)=C(NC(C)c1nccs1)c1c(C(F)F)nn(C)c1F` (mixture of isomers) [Compound 309], 2.73^[a]; with `COC(=O)C(C#N)=C(NC(C)CCc1ccccc1)c1cccnc1Cl` (stereo not drawn) [Compound 424], 3.27^[a]. On to `CCNC(=O)C(C#N)=C(NC(C)C1CC1)c1cnn(C)c1C(F)F` (stereo not drawn) [Compound 1309], for which the “Log P” value is 2.64^[a]. Same read-out and setting: the value for `CCOC(=O)C(C#N)=C(NC1CC(C)C1)c1cccnc1Cl` (stereo not drawn) [Compound 1073] was 3.3^[a]. The same measure, in the same setting: with `CCOC(=O)C(C#N)=C(NC(C)C(=O)NC)c1sccc1C(F)(F)F` (stereo not drawn) [Compound 639] the figure was 2.25^[a].

Take `CCOC(=O)C(C#N)=C(NC(C)c1ncccc1SC)c1cccnc1Cl` (stereo not drawn) [Compound 1448]: the “Log P” value is 3.1^[a]. On the same count and under the same terms, with `CCOC(=O)C(C#N)=C(NC(C)C(=O)NC)c1ccnc2ccccc12` (stereo not drawn) [Compound 1503] the figure was 1.8^[a]; with `CCOC(=O)C(C#N)=C(NC(C)c1ccc(C)cc1)c1sccc1C(F)(F)F` (mixture of isomers) [Compound 439], 4.54^[a]; with `CCOC(=O)C(C#N)=C(NCc1ccccn1)c1cn(C)nc1C(F)F` [Compound 32], 1.94^[a].

On to `CCOC(=O)C(C#N)=C(NC(C)c1cnn(C)c1)c1cccnc1Cl` (stereo not drawn) [Compound 321], for which the “Log P” value was 2.2^[a]. In the case of `CCOC(=O)C(C#N)=C(Nc1ccccc1S(C)(=O)=O)c1cc(C)oc1C` [Compound 417], the “Log P” value was 2.65^[a].

With `COC(=O)C(C#N)=C(NC(C)C(N)=O)c1sc(C)nc1C(F)(F)F` (stereo not drawn) [Compound 634], the “Log P” value was 1.69^[a]. Still for that read-out and setting: the value for `CCOC(=O)C(C#N)=C(NC(C)c1cccs1)c1sc(C)nc1C(F)(F)F` (stereo not drawn) [Compound 212] was 3.8^[a]; that for `CCOC(=O)C(C#N)=C(Nc1cccc(SC)c1)c1cn(C)nc1C(F)F` [Compound 498] was 3.17^[a]; that for `CCOC(=O)C(C#N)=C(NC(C)c1ccc(F)cc1)c1sccc1Br` (mixture of isomers) [Compound 446] was 4.06^[a]. Still for that read-out and setting: with `CCOC(=O)C(C#N)=C(NC1CCC1)c1cn(C)nc1C(F)F` [Compound 1123] the figure was 2.73^[a]; with `COC(=O)C(C#N)=C(NC1(c2cccc(Cl)c2)CC1)c1cccnc1Cl` [Compound 383], 3.11^[a]; with `CCOC(=O)C(C#N)=C(NC1CC1c1ccccc1)c1cccnc1Cl` (stereo not drawn) [Compound 1068], 3.44^[a].

Take `CCOC(=O)C(C#N)=C(NC(C)C(=O)Nc1ccc2ccccc2c1)c1sccc1Br` (racemic) [Compound 669]: the log partition coefficient (Log P) was 3.89^[a]. Same read-out and setting: with `COC(=O)C(C#N)=C(NC(C)c1sc(C)nc1C)c1sc(C)nc1C(F)(F)F` (racemic) [Compound 179] the figure was 2.8^[a]. Consider `CCOC(=O)C(C#N)=C(NC(C)COC)c1cn(C)nc1C(Cl)Cl` (stereo not drawn) [Compound 1567], for which the “Log P” value is 2.76^[a]. The same measure, in the same setting: the value for `CCOC(=O)C(C#N)=C(NC1COC1)c1cccnc1Cl` [Compound 1356] was 1.84^[a]; that for `CCOC(=O)C(C#N)=C(NC(C)c1ccc(F)cc1)c1ccsc1Br` (racemic) [Compound 531] was 3.89^[a]; that for `COC(=O)C(C#N)=C(NC(C)(C)c1ccc(F)cc1)c1cccnc1Cl` [Compound 399] was 2.98^[a]. Same read-out and setting: with `CCOC(=O)C(C#N)=C(NC(C)c1nccs1)c1ccncc1Br` (mixture of isomers) [Compound 297] the figure was 2.4^[a]; with `COC(=O)C(C#N)=C(NC1COC1)c1cccnc1Cl` [Compound 120], 1.35^[a]. Still for that read-out and setting: with `CCOC(=O)C(C#N)=C(NC(C)C(N)=O)c1sccc1Cl` (stereo not drawn) [Compound 644] the figure was 1.9^[a]. In the case of `CCOC(=O)C(C#N)=C(Nc1ccc(Cl)cc1)c1sccc1Br` [Compound 457], the “Log P” value is 4.11^[a]. The same measure, in the same setting: with `CCOC(=O)C(C#N)=C(NC(C)C(C)(C)C)c1cn(C)nc1C(F)F` (racemic) [Compound 918] the figure was 3.37^[a]; with `CCOC(=O)C(C#N)=C(NC(C)c1c(Cl)cccc1Cl)c1cccnc1Cl` (stereo not drawn) [Compound 1649], 3.8^[a]. As for `CCOC(=O)C(C#N)=C(NC(CC)COC)c1cn(C)nc1C(F)F` (stereo not drawn) [Compound 1332], the “Log P” value is 2.71^[a]. On the same count and under the same terms, with `C#CC(C)(C)NC(=C(C#N)C(=O)OCC)c1ccsc1Br` [Compound 1029] the figure was 3.42^[a]; with `CCOC(=O)C(C#N)=C(Nc1ccccc1SC(C)C)c1cc(C)oc1C` [Compound 421], 4.57^[a]; with `CCOC(=O)C(C#N)=C(NCC1(C)COC1)c1cn(C)nc1C(F)F` [Compound 1423], 2.04^[a].

`CCOC(=O)C(C#N)=C(NC(C)COc1cccc(OC)c1)c1cn(C)nc1C(F)F` (stereo not drawn) [Compound 742]: the log partition coefficient (Log P) is 3.35^[a]. Same read-out and setting: with `COC(=O)C(C#N)=C(NC(C)c1cc(Cl)cc(Cl)c1)c1cccnc1Cl` (stereo not drawn) [Compound 388] the figure was 3.68^[a]; with `CCOC(=O)C(C#N)=C(NC(C)(C)CSC)c1cc(C)oc1C` [Compound 619], 3.58^[a]. Still for that read-out and setting: with `CCOC(=O)C(C#N)=C(NC(C)C(C)C)c1cnn(C)c1C(F)F` (stereo not drawn) [Compound 1301] the figure was 3.23^[a]; with `CCOC(=O)C(C#N)=C(NC(C)CC)c1sccc1Br` (stereo not drawn) [Compound 827], 3.76^[a]; with `CCOC(=O)C(C#N)=C(NC(C)C1CC1)c1cc(Cl)cc(Cl)n1` (racemic) [Compound 900], 3.92^[a].

In the case of `CCOC(=O)C(C#N)=C(NC(C)c1csc(C)n1)c1cccnc1Cl` (stereo not drawn) [Compound 1524], the “Log P” value was 2.84^[a]. Same read-out and setting: with `CCOC(=O)C(C#N)=C(NC(CC(C)C)C(=O)OCC)c1cccnc1Cl` (stereo not drawn) [Compound 1196] the figure was 3.89^[a]; with `CCOC(=O)C(C#N)=C(NC(C)CC(C)C)c1sccc1Br` (racemic) [Compound 783], 4.46^[a]; with `COC(=O)C(C#N)=C(NC(C)c1ccc(C)cc1)c1cccnc1Cl` (stereo not drawn) [Compound 409], 3.28^[a].

For the molecule `CCOC(=O)C(C#N)=C(NCc1nc(C(F)(F)F)cs1)c1sc(C)nc1C(F)(F)F` [Compound 198], the “Log P” value was 3.35^[a]. Still for that read-out and setting: the value for `CC#CC(C)(C)NC(=C(C#N)C(=O)OC)c1cccnc1Cl` [Compound 1039] was 2.57^[a]; that for `CCOC(=O)/C(C#N)=C(\NC(C)Cc1c[nH]c2ccccc12)c1sccc1Cl` (stereo not drawn) [Compound 151] was 3.8^[a]; that for `CCOC(=O)C(C#N)=C(NC(C)C(=O)OC)c1cn(C)nc1C(F)F` (stereo not drawn) [Compound 673] was 2.31^[a]. For `CCOC(=O)C(C#N)=C(NC(C)c1ccccn1)c1nsc(Cl)c1Cl` (stereo not drawn) [Compound 71], the “Log P” value was 3.35^[a]. On the same count and under the same terms, with `CC(C)C(C)NC(=C(C#N)C(=O)N1CCOCC1)c1cn(C)nc1C(F)F` (stereo not drawn) [Compound 1326] the figure was 2.43^[a]; with `CCOC(=O)C(C#N)=C(NC1CCC1)c1cccnc1C(F)F` [Compound 799], 2.76^[a]; with `CCOC(=O)C(C#N)=C(NC(C)C(N)=O)c1sc(C)nc1C(F)(F)F` (stereo not drawn) [Compound 641], 1.96^[a]. Same read-out and setting: the value for `COC(=O)C(C#N)=C(NC(C)(C)c1ccccc1)c1cccnc1Cl` [Compound 370] was 2.98^[a]; that for `CCOC(=O)C(C#N)=C(NC(C)c1ccccn1)c1ccsc1I` (racemic) [Compound 163] was 3.03^[a]. Turning to `CCOC(=O)C(C#N)=C(NC(C)C1CC1)c1cn(C)cc1C(F)(F)F` (racemic) [Compound 901], the “Log P” value was 3.56^[a].

Take `CCOC(=O)C(C#N)=C(NC1CCCC1OCC)c1cccnc1Cl` (stereo not drawn) [Compound 1373]: the “Log P” value was 3.44^[a]. The same measure, in the same setting: the value for `CCOC(=O)C(C#N)=C(NC(C)c1ccccc1F)c1cccnc1Cl` (stereo not drawn) [Compound 1532] was 3.48^[a]; that for `CCOC(=O)C(C#N)=C(NC1(CC2CC2)CC1)c1cccnc1Cl` [Compound 1642] was 3.53^[a]; that for `CC(C)CNC(=O)C(C#N)=C(NC(C)C(C)C)c1cccnc1Cl` (stereo not drawn) [Compound 1494] was 3.74^[a]. On the same count and under the same terms, with `CCOC(=O)C(C#N)=C(NC(C)c1ccccn1)c1ccnc2ccccc12` (racemic) [Compound 1497] the figure was 2.5^[a].

Staying with this series, now noted: pH 7.5.
As for `CCOC(=O)C(C#N)=C(NC(C)C(C)C)c1cccnc1-c1ccc(Cl)cc1` (stereo not drawn) [Compound 974], the lipophilicity (Log P) was found to be 4.08. The same measure, in the same setting: with `CCNC(=O)C(C#N)=C(NC(C)c1nccs1)c1ccc(Cl)nc1Cl` (stereo not drawn) [Compound 1471] the figure was 2.65; with `CCOC(=O)C(C#N)=C(Nc1ccc(F)c(F)c1)c1cccnc1Cl` [Compound 1597], 2.96; with `CCOC(=O)C(C#N)=C(NC(C)CSC)c1ccc(C)nc1Cl` (mixture of isomers) [Compound 633], 3.09. Still for that read-out and setting: with `C=CCNC(=O)C(C#N)=C(NC(C)C(C)C)c1cccnc1Cl` (stereo not drawn) [Compound 1458] the figure was 3^[c]; 3^[b]. The same measure, in the same setting: with `CCOC(=O)C(C#N)=C(NC(C)c1nccs1)c1cccnc1C` (racemic) [Compound 152] the figure was 2.17; with `CCONC(=O)C(C#N)=C(NC(C)C(C)C)c1cccnc1Cl` (stereo not drawn) [Compound 1454], 2.44^[c]; 2.44^[b]; with `CCOC(=O)C(C#N)=C(NC(C)C(C)C)c1cccnc1OC` (stereo not drawn) [Compound 961], 3.52^[c]; 3.52^[b]. In the case of `CCOC(=O)C(C#N)=C(NC(C)CBr)c1cccnc1Cl` (stereo not drawn) [Compound 767], the “Log P” value was 2.79. As for `CCOC(=O)C(C#N)=C(NC(C)C=NO)c1cccnc1Cl` (stereo not drawn) [Compound 1443], the “Log P” value is listed as 1.78.
